Eleven compounds from PubChem BioAssay (NCI) can be followed below.

Common to all, as to assay: NCI-60 cell line screen, 48 h
Assay [1] has as its system SF-295 CNS.
Assay [2] concerns SNB-75 CNS.
Assay [3] concerns NCI-H460 lung.
The test system of assay [4] is HL-60(TB) leukemia.
For assay [5], the system named is UACC-62 melanoma.
Assay [6] deals with UO-31 renal.
Assay [7] has as its system SF-539 CNS.
Assay [8] concerns SNB-19 CNS.
Assay [9] relates to SK-MEL-5 melanoma.
Assay [10] deals with M14 melanoma.
In assay [11] the test system is HOP-92 NSCLC.
Assay [12] has as its system OVCAR-3 ovarian.
Assay [13] deals with A549 NSCLC.
In assay [14] the test system is A498 renal.
Assay [15] relates to DU-145 prostate.
Assay [16] relates to MCF7 breast.
In assay [17] the test system is T-47D breast.
Assay [18] relates to HCT-116 colon.
Assay [19] deals with UACC-257 melanoma.

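Assay format: 96-well plates, 48-hour exposure. TGI: total growth inhibition.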

With `CN1CCN(CCCCN2c3ccccc3Sc3cc(N=[N+]=[N-])ccc32)CC1`, the TGI in assay [1] is 5.65 µM; in [2], 10.1 µM; in assay [3], 3.8 µM; in [4], 6.08 µM; in assay [5] it was 3.92 µM; in assay [6] it was 3.76 µM. The TGI in assay [7] stood at 8.31 µM; in assay [8], 10.8 µM; in [9] it was 3.04 µM; in assay [10] it was 3.28 µM; in assay [11], 6.43 µM; in assay [12] it was 6.53 µM. Moreover, the TGI in assay [13] worked out at 3.93 µM; in assay [14] it was 22.8 µM; in assay [15] it was 15.1 µM; in [16], 3.63 µM; in [17], 31.9 µM; in assay [18], 2.98 µM. The TGI in assay [19] was 3.89 µM.

Take `O=C(Nc1ccc(Cl)c(Cl)c1)N1N=C2c3ccccc3CCC2C1c1ccc(Cl)cc1` (stereo not given): the TGI in assay [1], in [2], in assay [3], in [4], in assay [5] and in [6] was greater than 100 µM in each case. Also, the TGI in assay [7], in assay [8], in assay [9], in assay [10], in [11] and in [12] was greater than 100 µM throughout. For the same compound, the TGI in assay [13], in assay [14], in assay [15], in [16], in [17] and in [18] was greater than 100 µM in each case. This compound also returned a TGI in [19] greater than 100 µM.

Take `CC(O)C1(CNc2cc(Cl)nc(N)n2)CC(CCc2ccccc2)C1` (stereo not given): the TGI in assay [1] turned out to be 27.6 µM; in assay [2], 40 µM; in assay [3] it was 27.7 µM; in assay [4] it was 41.7 µM; in assay [5] it was 24.5 µM; in assay [6], 24.6 µM. Besides, the TGI in assay [7] amounted to 32.6 µM; in assay [8], 34 µM; in assay [9] it was 19.7 µM; in assay [10] it was 33.4 µM; in assay [11], 25 µM; in assay [12] it was 33.7 µM. The TGI turned out to be 31 µM in assay [13]; 27.3 µM in [14]; 35.9 µM in assay [15]; 0.992 µM in assay [16]; 44.1 µM in assay [17]; 21.1 µM in assay [18]. In assay [19], this compound yielded a TGI of 19.8 µM.

With `Cc1nc2c(o1)C(=O)c1ccccc1C2=Nc1ccc(N2CCOCC2)cc1`, the TGI was found to be 5.98 µM in assay [1]; 5.03 µM in assay [2]; 26.8 µM in assay [3]; 7.24 µM in assay [4]; 3.73 µM in [5]; 10.2 µM in [6]. The TGI in [7] was 6 µM; in assay [8], 36.9 µM; in assay [9] it was 3.2 µM; in assay [10] it was 3.27 µM; in assay [11] it was greater than 100 µM; in assay [12] it was 5.12 µM. The TGI is 17.8 µM in assay [13]; 35.4 µM in [14]; 7.81 µM in assay [15]; 7.9 µM in assay [16]; 19 µM in assay [17]; 13.6 µM in assay [18]. In assay [19], this compound had a TGI of 4.64 µM.

On to `CCC1C(=O)C(O)[C@H]2[C@@H]3C(O)CC4=CC(=O)CC[C@]4(C)[C@H]3CC[C@]12C` (stereo not given in full), for which the TGI in assay [1], in assay [2], in assay [3], in [4], in [5] and in assay [6] was greater than 50 µM in each case. Besides, the TGI in assay [7], in assay [8], in [9], in assay [10], in assay [11] and in assay [12] was greater than 50 µM each time. Also, the TGI in assay [13], in assay [14], in assay [15], in [16], in assay [17] and in assay [18] was greater than 50 µM throughout. Also, the TGI in assay [19] is greater than 50 µM.

Regarding `O=C(c1cc2c(c3ccccc13)NCCN=C2C(F)(F)F)C(F)(F)F`, the TGI in [1] was 50.1 µM; in [2], greater than 100 µM; in [3] it was 34.4 µM; in assay [4] it was 75.4 µM; in assay [6], greater than 100 µM; in [7] it was 54.9 µM. The TGI in [9] is 31 µM; in [10] it was 79.6 µM; in assay [11] it was 86.6 µM; in assay [12], 80.9 µM; in assay [14], 40.3 µM; in assay [15], greater than 100 µM. Further, the TGI in assay [16] is greater than 100 µM; in assay [17], greater than 100 µM; in [18] it was greater than 100 µM; in [19], 42.7 µM.

Take `COC(=O)/C=C(/OC)[C@H](C)[C@H](/C=C/c1csc(-c2csc(C(C)C)n2)n1)OC`: the TGI was greater than 100 µM in assay [1]; greater than 100 µM in assay [2]; greater than 100 µM in assay [3]; 99.5 µM in assay [4]; greater than 100 µM in [5]; greater than 100 µM in assay [6]. In addition, the TGI was greater than 100 µM in assay [7]; greater than 100 µM in assay [8]; 19.9 µM in assay [9]; greater than 100 µM in assay [10]; greater than 100 µM in assay [11]; greater than 56.3 µM in assay [12]. In addition, the TGI in assay [13], in assay [14], in [15], in assay [16], in [17] and in assay [18] was greater than 100 µM in each case. Further, in assay [19], the TGI was greater than 100 µM.

For `C[C@]12CC[C@H](O)CC1=CC[C@@H]1[C@@H]2CC[C@]2(C)C(=N/O)/C(=C/c3ccc([N+](=O)[O-])cc3)C[C@@H]12`, the TGI was 10.7 µM in assay [1]; 18 µM in assay [2]; 18.5 µM in [3]; 25 µM in assay [4]; 28.6 µM in assay [5]; 24.7 µM in assay [6]. Besides, the TGI in assay [7] was 19.3 µM; in assay [8], 22.4 µM; in assay [9] it was 3.32 µM; in assay [10], 21.1 µM; in [11], 14.9 µM; in [12] it was 5.06 µM. The TGI in assay [13] was 17.7 µM; in assay [14] it was 11.7 µM; in assay [15], 21.6 µM; in assay [16], 18.2 µM; in assay [17], 30.5 µM; in [18] it was 15.7 µM. In [19], this compound showed a TGI of 16.5 µM.

With `N#Cc1nc(C(CO)N(Cc2ccccc2)C(=O)O)oc1N` (stereo not given), the TGI in [1], in [2], in assay [3], in [4], in [5] and in [6] was greater than 100 µM in each case. For the same compound, the TGI in assay [7], in assay [9], in assay [10], in assay [11], in assay [12] and in [13] was greater than 100 µM in each case. For the same compound, the TGI in assay [14], in assay [15], in assay [16], in [17], in [18] and in assay [19] was greater than 100 µM throughout.

With `O=[N+]([O-])c1cc(Cl)cc2cc(Br)cnc12`, the TGI in assay [1], in assay [2], in assay [3], in assay [4], in assay [5] and in assay [6] was greater than 31.6 µM each time. Also, the TGI was greater than 31.6 µM in assay [7]; greater than 31.6 µM in assay [8]; greater than 31.6 µM in [9]; greater than 31.6 µM in assay [10]; greater than 23.5 µM in [11]; greater than 31.6 µM in assay [12]. For the same compound, the TGI in assay [13], in assay [14], in [15], in assay [16], in assay [17] and in [18] was greater than 31.6 µM in each case. The compound also came in with a TGI in [19] greater than 31.6 µM.

As for `CC(=O)N1CC(=O)N2C(=O)/C(=C/c3ccc(Cl)cc3)N=C12`, the TGI is greater than 100 µM in assay [1]; greater than 100 µM in assay [2]; greater than 100 µM in assay [3]; 56.4 µM in [4]; greater than 100 µM in assay [5]; greater than 100 µM in assay [6]. Moreover, the TGI in assay [7], in assay [8], in assay [9], in [10], in assay [11] and in assay [12] was greater than 100 µM each time. Also, the TGI in assay [13], in assay [14], in assay [15], in assay [16], in assay [17] and in assay [18] was greater than 100 µM in each case. The TGI in [19] was greater than 100 µM.
